Source: the NIST ThermoML archive (doi:10.1016/j.tca.2013.06.040)

What was measured:
[1] = Molar enthalpy of transition or fusion; settings: DSC
[2] = molar heat capacity at constant pressure; settings: 101.33 kPa, Small sample (50 mg) DSC
[3] = DTA

O=[N+]([O-])[O-].[Li+] [lithium nitrate]
Crystal
Settings	Molar enthalpy of transition or fusion [kcal/mol]	Triple point temperature [K]
[1]	5.86	–
[3]	–	525

[2]
Settings	molar heat capacity at constant pressure [J/K/mol]
310.7 K, Crystal	63.7
315.7 K, Crystal	56.8
320.6 K, Crystal	117
325.6 K, Crystal	114
330.6 K, Crystal	80.3
335.6 K, Crystal	72.2
340.6 K, Crystal	63.4
345.6 K, Crystal	78.2
350.6 K, Crystal	88.7
355.6 K, Crystal	83.5
360.6 K, Crystal	80.8
365.6 K, Crystal	81.5
370.6 K, Crystal	75.6
375.6 K, Crystal	79.1
380.6 K, Crystal	77.3
385.6 K, Crystal	80.7
390.6 K, Crystal	81.1
395.6 K, Crystal	83.9
400.6 K, Crystal	87.5
405.5 K, Crystal	86.4
410.5 K, Crystal	81.9
415.5 K, Crystal	90.3
420.5 K, Crystal	87.1
425.5 K, Crystal	86.2
430.5 K, Crystal	91.5
435.6 K, Crystal	94.4
440.6 K, Crystal	95.6
445.5 K, Crystal	88.4
450.5 K, Crystal	93.6
455.4 K, Crystal	90.4
460.3 K, Crystal	93.1
465.4 K, Crystal	96.3
470.5 K, Crystal	97.4
475.5 K, Crystal	91.5
480.6 K, Crystal	94.5
485.5 K, Crystal	95.6
490.5 K, Crystal	99.4
495.5 K, Crystal	102
500.5 K, Crystal	98.8
505.5 K, Crystal	103
510.5 K, Crystal	110
515.5 K, Crystal	125
520.5 K, Crystal	127
535.5 K, Liquid	114
540.5 K, Liquid	122
545.5 K, Liquid	122
550.5 K, Liquid	125
555.5 K, Liquid	117
560.5 K, Liquid	121
570.5 K, Liquid	122
575.5 K, Liquid	123
580.5 K, Liquid	116
585.5 K, Liquid	121
590.5 K, Liquid	119
595.5 K, Liquid	122
600.5 K, Liquid	119
610.5 K, Liquid	113
615.5 K, Liquid	120
620.5 K, Liquid	110

O=[N+]([O-])[O-].O=[N+]([O-])[O-].[Li+].[Rb+] [lithium rubidium nitrate]
Crystal
Settings	Molar enthalpy of transition or fusion [kcal/mol]	Triple point temperature [K]
[1]	5.31	–
[3]	–	460

[2]
Settings	molar heat capacity at constant pressure [J/K/mol]
315.6 K, Crystal	150.8
320.6 K, Crystal	166.6
325.6 K, Crystal	171.8
330.6 K, Crystal	190.8
335.6 K, Crystal	179.2
340.6 K, Crystal	184.8
345.6 K, Crystal	184
350.6 K, Crystal	200
355.6 K, Crystal	204
360.6 K, Crystal	222
365.6 K, Crystal	222
370.6 K, Crystal	190.6
375.6 K, Crystal	206
380.6 K, Crystal	189
385.6 K, Crystal	196.4
390.5 K, Crystal	206
395.5 K, Crystal	224
400.5 K, Crystal	191.4
405.5 K, Crystal	210
410.5 K, Crystal	195.4
420.5 K, Crystal	206
425.5 K, Crystal	224
435.5 K, Crystal	232
445.5 K, Crystal	262
460.5 K, Liquid	374
470.5 K, Liquid	346
475.5 K, Liquid	342
480.5 K, Liquid	364
485.5 K, Liquid	382
490.5 K, Liquid	384

O=[N+]([O-])[O-].[Rb+] [rubidium nitrate]
Settings	Molar enthalpy of transition or fusion, Crystal 1 [kcal/mol]	Molar enthalpy of transition or fusion, Crystal 2 [kcal/mol]	Molar enthalpy of transition or fusion, Crystal 3 [kcal/mol]	Molar enthalpy of transition or fusion, Crystal 4 [kcal/mol]	Triple point temperature, Crystal 1 [K]	Triple point temperature, Crystal 2 [K]	Triple point temperature, Crystal 3 [K]	Triple point temperature, Crystal 4 [K]
[1]	1.12	0.299	0.554	0.889	–	–	–	–
[3]	–	–	–	–	583	555	500	437

[2]
Settings	molar heat capacity at constant pressure [J/K/mol]
325.6 K, Crystal 4	99
330.6 K, Crystal 4	99.5
335.6 K, Crystal 4	101
340.6 K, Crystal 4	102
345.6 K, Crystal 4	101
350.6 K, Crystal 4	101
355.6 K, Crystal 4	102
360.6 K, Crystal 4	100
365.6 K, Crystal 4	104
370.6 K, Crystal 4	104
375.6 K, Crystal 4	106
380.6 K, Crystal 4	107
385.6 K, Crystal 4	109
390.6 K, Crystal 4	109
395.6 K, Crystal 4	110
400.6 K, Crystal 4	111
405.6 K, Crystal 4	112
410.6 K, Crystal 4	113
415.6 K, Crystal 4	113
420.6 K, Crystal 4	114
425.5 K, Crystal 4	123
430.5 K, Crystal 4	118
435.5 K, Crystal 4	123
440.5 K, Crystal 3	833
445.5 K, Crystal 3	134
450.5 K, Crystal 3	134
455.5 K, Crystal 3	135
460.5 K, Crystal 3	136
465.5 K, Crystal 3	136
470.5 K, Crystal 3	138
475.5 K, Crystal 3	138
480.5 K, Crystal 3	138
485.5 K, Crystal 3	138
490.5 K, Crystal 3	139
495.5 K, Crystal 3	139
500.5 K, Crystal 2	303
505.5 K, Crystal 2	368
510.5 K, Crystal 2	175
515.5 K, Crystal 2	132
520.5 K, Crystal 2	134
525.5 K, Crystal 2	135
530.5 K, Crystal 2	136
535.5 K, Crystal 2	136
540.5 K, Crystal 2	136
545.5 K, Crystal 2	137
550.5 K, Crystal 2	161
555.5 K, Crystal 1	151
560.5 K, Crystal 1	399
565.5 K, Crystal 1	112
570.5 K, Crystal 1	113
575.5 K, Crystal 1	111
580.5 K, Crystal 1	115
585.5 K, Liquid	744
590.5 K, Liquid	249
595.5 K, Liquid	157
600.5 K, Liquid	140
605.5 K, Liquid	138
610.5 K, Liquid	138
615.5 K, Liquid	138
620.5 K, Liquid	137
